For the experiment, the system named is 324938-238-R-J1-PDC complex spheroid growth, % test/control. As to the kind of experiment: Anticancer human tumor 324938-238-R-J1-PDC patient-derived bladder carcinoma cell line growth inhibition [AhR]. The conditions noted are these: for viability, T/C: stronger effect = lower value; for IC50: curve of compound. From the text: Multicellular complex tumor spheroid response to aryl hydrocarbon receptor antagonists in combination with a variety of drugs and investigational agents in selected tumor cell lines
The current study was undertaken to assess response to aryl hydrocarbon receptor antagonists in combination with standard-of-care drugs and investigational agents in solid tumor complex spheroid models. Complex spheroids include a stromal component modeled by human endothelial cells (HUVEC) and fibroblasts modeled by human mesenchymal stem cells (MSCs). The concentration ranges selected for each drug and investigational agent were based upon clinically achievable concentrations if the clinical Cmax of the agent was known.
Compounds. The drugs and investigational agents: BAY 2416964 (NSC825713), GNF351 (NSC835774), CH-223191 (NSC835775), CPI-455 (NSC825282), aza-TdCyd (NSC777586), decitabine (NSC127716), belinostat (NSC758774), entinostat (NSC756642), pevonedistat (NSC761192), tazemetostat (NSC777109), talazoparib (NSC765396), olaparib (NSC753686), selinexor (NSC780203), nedisertib (M3814, NSC802822), bortezomib (NSC756655), venetoclax (NSC766270), doxorubicin (NSC123127), elimusertib (BAY189344, NSC800525), ceralasertib (AZD6738, NSC777638), TAK-243 (NSC785004), alisertib (NSC759677), etoposide (NSC141540), topotecan (NSC609699), eribulin (NSC707389), gemcitabine (NSC613327), carboplatin (NSC241240), cisplatin (NSC119875), and SN-38 (NSC673596) were obtained from the National Cancer Institute (NCI) Developmental Therapeutics Program Chemical Repository (32). The FDA-approved anticancer drug set is available from the Developmental Therapeutics Program at https://dtp.cancer.gov/organization/dscb/obtaining/available plates.htm. […] The stock solutions were prepared in dimethyl sulfoxide (DMSO, Sigma-Aldrich, St. Louis, MO, cat. D2650), except for the platinum compounds which were prepared in saline (Quality Biological, Gaithersburg, MD, cat. 114-055-101), at 800-fold the tested concentration and stored at -70 degrees C prior to their use. All drugs and investigational agents were tested over a range starting from a high concentration at or near the clinical Cmax and decreasing in half-log increments. If the clinical Cmax for an agent had not been determined, the highest concentration tested was 10 microM (Table 1).
Cell Culture. All cells were maintained in an incubator at 37 degrees C and 5% CO2 with 95% humidity. The PDC lines were cultured according to standard operating procedures established by the NCI PDMR (https://pdmr.cancer.gov). Briefly, all PDCs were thawed and cultured in Matrigel-coated flasks prepared with a working solution of 1X Ham's F-12 nutrient mix, without supplementation (Invitrogen, Waltham, MA, cat. 11765054), 100 U/mL penicillin-streptomycin (Invitrogen, cat. 15140122), and 2.5% Matrigel (Corning Inc., Corning, NY, cat. 354248) for the first three passages. All PDCs were cultured in complete DMEM/F-12 media containing advanced DMEM/F-12 (Invitrogen, cat. 12634028), 4.9% defined fetal bovine serum, heat inactivated (HyClone Laboratories Inc., Logan, UT, cat. SH30070.03HI), 389 ng/mL hydrocortisone (Sigma-Aldrich, cat. H4001), 9.7 ng/mL human EGF recombinant protein (Invitrogen, cat. PHG0313), 23.4 microg/mL adenine (Sigma-Aldrich, cat. A2786), 97.3 U/mL penicillin-streptomycin (Invitrogen, cat. 15140122), 1.9 mM L-glutamine (Invitrogen, cat. 25030081), and 9.7 microM Y-27632 dihydrochloride (Tocris Bioscience, Bristol, United Kingdom, cat. 1254). The PDCs were cultured in complete DMEM/F12 media without 10 microM Y-27632 dihydrochloride for at least two passages prior to the screen. The established cell lines NCI-H1341 and […] were cultured in DMEM/F-12, HEPES (Invitrogen, cat. 11330032), 5% defined fetal bovine serum (HyClone Laboratories Inc., cat. SH30070.03), ITS premix universal culture supplement [insulin (5 microg/mL), transferrin (5 microg/mL), and selenious acid (5 ng/mL)] […]

Several values for one entry are separate records, joined by “and”; a condition that tells them apart may be missing. Identical values can stand only once. Bounds are passed on as bounds.
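Note: spheroids exposed to agents for seven days before viability read.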

For `CC(C)CC(NC(=O)C(Cc1ccccc1)NC(=O)c1cnccn1)B(O)O` (centres undefined), the 50% inhibitory concentration (IC50) was 4.84 nM and 5.31 nM and 1.8 nM. Also, the viability, T/C (compound 0.000949 µM) is 87.9% and 116% and 93.5%. Also, the viability, T/C (compound 0.003 µM) was 85.2% and 98.1% and 15.2%. Further, the viability, T/C (compound 0.00949 µM) is 0.63% and 1.24% and 0.3%. Moreover, the viability, T/C (compound 0.03 µM) is 0.28% and 0.36% and 0.27%. Besides, the viability, T/C (compound 0.0949 µM) is 0.78% and 0.3% and 0.27%. Also, the viability, T/C (compound 0.3 µM) is 0.76% and 0.41% and 0.31%.

As for `CC1(C)CCC(CN2CCN(c3ccc(C(=O)NS(=O)(=O)c4ccc(NCC5CCOCC5)c([N+](=O)[O-])c4)c(Oc4cnc5[nH]ccc5c4)c3)CC2)=C(c2ccc(Cl)cc2)C1`, the IC50 is greater than 10000 nM. For the setting “compound 0.0316 µM”, the viability, T/C was 87.5% and 102% and 105%. The viability, T/C (compound 0.1 µM) is 125% and 98.4% and 101%. Further, the viability, T/C (compound 0.316 µM) was 93.4% and 103% and 109%. The viability, T/C (compound 1 µM) is 82.8% and 94.3% and 101%. For the same compound, for the setting “compound 3.16 µM”, the viability, T/C was 104% and 90.7% and 87.7%. For the same compound, the viability, T/C (compound 10 µM) is 114% and 59.1% and 52.6%.

For `CC1COCCN1c1cc(-c2ccnn2C)c2ccnc(-c3ccn[nH]3)c2n1` (centres undefined), the viability, T/C (compound 0.00316 µM) is 98.3% and 108% and 107%; the viability, T/C (compound 0.01 µM) was 92.6% and 112% and 110%; the viability, T/C (compound 0.0316 µM) was 67.5% and 99.7% and 66.6%; the viability, T/C (compound 0.1 µM) is 55.1% and 76.3% and 45%; the viability, T/C (compound 0.316 µM) is 83.7% and 48.9% and 31.1%; the viability, T/C (compound 1 µM) is 68.1% and 27.7% and 19.9%.

Turning to `CC1COCCN1c1cc(C2(S(C)(=N)=O)CC2)nc(-c2ccnc3[nH]ccc23)n1` (centres undefined), the IC50 is > 10000 nM and 5910 nM and 2940 nM. Also, the viability, T/C (compound 0.0316 µM) is 93% and 98% and 106%. Also, the viability, T/C (compound 0.1 µM) is 114% and 112% and 116%. Further, the viability, T/C (compound 0.316 µM) was 90% and 106% and 85.7%. Besides, the viability, T/C (compound 1 µM) is 93.9% and 90.2% and 86.4%. In addition, the viability, T/C (compound 3.16 µM) was 76.7% and 70.4% and 43.9%. Also, the viability, T/C (compound 10 µM) was 77.1% and 33.6% and 25.4%.

Consider `CCN(c1cc(-c2ccc(CN3CCOCC3)cc2)cc(C(=O)NCc2c(C)cc(C)[nH]c2=O)c1C)C1CCOCC1`, for which the IC50 is greater than 3000 nM. For the same compound, where the note is “compound 0.00949 µM”, the viability, T/C was 93.5% and 100% and 111%. Besides, the viability, T/C (compound 0.03 µM) is 109% and 106% and 117%. Moreover, for the setting “compound 0.0949 µM”, the viability, T/C is 106% (2×) and 107%. Also, the viability, T/C (compound 0.3 µM) is 83% and 100% and 116%. Under “compound 0.949 µM”, the viability, T/C was 85% and 104% and 113%. For the same compound, the viability, T/C (compound 3 µM) was 124% and 97.5% and 105%.

For `CC[C@@]1(O)C(=O)OCc2c1cc1n(c2=O)Cc2cc3c(CN(C)C)c(O)ccc3nc2-1`, the half-inhibitory concentration (IC50) was > 100 nM and 21.3 nM and 20.1 nM. Also, the viability, T/C (compound 0.000316 µM) is 96% and 93.1% and 103%. Besides, where the note is “compound 0.001 µM”, the viability, T/C is 96.2% and 106% and 108%. Moreover, the viability, T/C (compound 0.00316 µM) is 66.5% and 84.8% and 87.8%. Moreover, the viability, T/C (compound 0.01 µM) was 82.1% and 74.2% and 73.3%. In addition, the viability, T/C (compound 0.0316 µM) is 125% and 37.5% and 35.2%. Also, the viability, T/C (compound 0.1 µM) was 106% and 17.9% and 16.8%.

`CCc1c2c(nc3ccc(O)cc13)-c1cc3c(c(=O)n1C2)COC(=O)[C@]3(O)CC`: the viability, T/C runs as follows: (compound 0.000949 µM) 80.8% and 57.3% and 38.8%; (compound 0.003 µM) 71% and 52.4% and 28.9%; (compound 0.00949 µM) 70.2% and 18.2% and 19%; (compound 0.03 µM) 90.4% and 15.3% and 17.9%; (compound 0.0949 µM) 78.3% and 16.9% and 17%; (compound 0.3 µM) 69.4% and 14.9% and 15.4%.

In the case of `COc1cc(C2c3cc4c(cc3C(OC3OC5COC(C)OC5C(O)C3O)C3COC(=O)C23)OCO4)cc(OC)c1O` (centres undefined), the viability, T/C runs as follows: (compound 0.0316 µM) 118% and 99.2% and 96.2%; (compound 0.1 µM) 101% and 103% and 86.9%; (compound 0.316 µM) 113% and 51.8% and 53%; (compound 1 µM) 97% and 31.6% and 32.9%; (compound 3.16 µM) 78.7% and 31.4% and 29.9%; (compound 10 µM) 95.9% and 19% and 20%.

Consider `COc1cc(Nc2ncc3c(n2)-c2ccc(Cl)cc2C(c2c(F)cccc2OC)=NC3)ccc1C(=O)O`, for which the viability, T/C is 101% and 74% and 71.8% (compound 0.0316 µM); 111% and 56% and 46% (compound 0.1 µM); 68.3% and 32.7% and 27.7% (compound 0.316 µM); 92% and 36% and 28.2% (compound 1 µM); 92.5% and 38.2% and 27.3% (compound 3.16 µM); 75.8% and 39.1% and 32.8% (compound 10 µM).

The term viability, T/C denotes the result in the treated group divided by that in the control group, in per cent. The term IC50 denotes the point on the concentration scale where inhibition reaches its midpoint.

Values taken from PubChem BioAssay AID1918995 (Molecular Pharmacology Branch, DTP, NCI, 2023).
